The results in this text go back to patent publication US20050042714A1, “Glycoconjugates of sialic acid derivates, methods for their production and use thereof” (priority 2001, published 2005).

What all share (format): cell-based, human
In assay [1] the test system is HL60-I cells. As to the kind of experiment: metabolic complementation assay: lectin staining (VVA, LFA, TLM) of analogue-treated cells by flow cytometry. As to conditions: 5 mM, 24 h; for effect on VVA binding: decrease = masking of GalNAc by sialic acid. How it is done:
Medium supplementation with some synthetic sialic acid analogues restores cell surface sialylation in hyposialylated HL60-I cells. Cells were cultivated in the presence of indicated synthetic sialic acid analogue (5 mM) for 24 h and stained with either directly fluorochrome-coupled lectins (VVA, LFA) or biotin-coupled lectin (TLM) and streptavidin-FITC and analyzed by flow cytometry. Values are given as “relative factor of change” (RFC) of the “mean fluorescence intensity” (MFI) of sialic acid-treated cells relative to untreated cells. The bars represent arithmetic means±SD (n^34) of one (x) or ≧two experiments.
To test whether cells can incorporate synthetic sialic acid analogues from the culture medium, a metabolic complementation assay was performed on endogenously hyposialylated, UDP-GlcNAc-2-epimerase-deficient HL60-I cells.
Cells were cultivated for 24 h in the presence of one of 16 different synthetic sialic acid analogues, carrying distinct C5 or C9 modifications (FIG. 1), and subsequently, changes in cell surface sialylation were assessed by flow cytometry using three fluorochrome-conjugated sialic acid-sensitive lectins. Vicia villosa agglutinin (VVA) detects GalNAc residues, and its binding sites can be masked by the addition of terminal sialic acid residues.
In sugar supplementation assays, cells seeded at 5×10^5 cells/ml in culture medium buffered with 40 mM HEPES (pH 7.2) were cultivated for 24 h in the presence or absence of 5 mM sialic acids (stocks of 100 mM dissolved in H2O, stored at 4° C.).
(§1) Lyophilized FITC-conjugated lectins Vicia villosa (VVA) was obtained from Sigma, dissolved in H2O (1 mg/ml), aliquoted and stored at −20° C. according to the manufacturer's instructions. FITC-conjugated Limax flavus agglutinin (LFA) was from EY Laboratories (San Manteo, Calif., USA) and biotin-coupled Tritrichomonas mobilensis agglutinin (TLM) from Calbiochem. Lectin staining procedure and fluorescence-activated cell scanning on a Becton Dickinson FACScan cytometer using Cellquest II software were carried out as described (Keppler, O. T., Molden-hauer, G., Oppenländer, M., Schwartz-Albiez, R., Berger, E. G., Funderud, S., and Pawlita, M. (1992) Eur J Immunol 22(11), 2777-81). Briefly, cells (3×10^5) were washed twice in cold PBS and then incubated in 100 μl PBS/0.05% NaN3, containing either fluorochrome-conjugated lectins VVA (50 μg/ml), LFA (20 μg/ml), or biotinylated TLM (20 μg/ml) for 45 min on ice in the dark. For biotinylated TLM a secondary incubation step with steptavidin-FITC (20 μg/ml) (Sigma) for 30 min on ice in the dark is required. After washing with PBS, cells were resuspended in 300 μl PBS and analyzed by flow cytometry.
(In general: A flow cytometer gives signals particle by particle.)

Assay [2] relates to HL60-I cells. As to the kind of experiment: uptake of peracetylated/esterified NeuAc: VVA and TML lectin staining by flow cytometry. As to conditions: for effect on cell surface sialylation (VVA and TML binding): 0.03 to 1 mM (NeuAc 1 or 5 mM), 0.5% DMSO. How it is done:
Peracetylation of NeuAc only facilitates uptake if the carboxyl group is additionally esterified. Hyposialylated HL60-I cells were cultivated in the presence of indicated synthetic sialic acid analogue (stock solution 200 mM in DMSO) ranging from 0.03 to 1 mM or 0, 1 or 5 mM NeuA for 72 h with DMSO concentrations adjusted to 0.5%. Cells were stained with either directly fluorochrome-coupled lectin VVA, or biotin-coupled lectin (TML) and streptavidin-FITC for analysis by flow cytometry. Values given are relative factors of change of the mean fluorescence intensity of pretreated cells relative to untreated cells. The bars represent arithmetic means±SD (n=3). Molecular structures are given below the diagram.
Sugars are very hydrophilic and it has been shown that increasing the hydrophobicity by peracetylation of hydroxyl groups enables or facilitates uptake of disaccharides (Collins, B. E., Fralich, T. J., Itonori, S., Ichikawa, Y. and Schnaar, R. L. (2000) Glycobiology, 10, 11-20; Sarkar, A. K., Fritz, T. A., Taylor, W. H. and Esko, J. D. (1995) Proc Natl Acad Sci USA, 92, 3323-7; Sarkar, A. K., Rostand, K. S., Jain, R. K., Matta, K. L. and Esko, J. D. (1997) J Biol Chem, 272, 25608-16). For ManNAc derivatives it has been shown that peracetylation reduces required medium concentrations (Collins et al., 2000). The acetyl groups are cleaved-off intracellularly by cellular esterases (Collins et al., 2000; Sarkar et al., 1995; Sarkar et al., 1997) and the derivatives are then processed as known for the non-acetylated sugars. In order to address the question whether peracetylation also facilitates uptake of N-acetylneuraminic acid, HL60-I cells were cultivated in the presence of peracetylated NeuAc at concentrations ranging from 0.03 mM to 1 mM for 3 days. Changes in cell surface sialylation were measured by flow cytometry using Vicia Villosa agglutinin (VVA) and Tritrichomonas mobilensis lectin (TML). […] This represents a reduction in concentration by more than 16-fold and is in a similar range as reported for peracetylated ManNAc and ManNAc (Collins et al., 2000).
as §1

Assay [3] has as its system BJA-B K20 cells. As to the kind of experiment: HPLC of membrane-associated sialic acids from analogue-treated cells. As to conditions: serum-free, 5 mM, 48 h. How it is done: Sialic acid analogues are incorporated in cell surface glycoconjugates. HPLC chromatograms of DMB-derivatised sialic acids hydrolysed from glycoproteins of sialic acid analogue-treated BJA-B K20 cells. (A) standards, (B) untreated cells, (C) cells cultivated in 5-N-fluoroacNeu, (D) cells cultivated in 9-iodo-NeuAc. Peaks were identified as follows: NeuGc (internal standard), NeuAc, 5-N-fluoroac-Neu, 9-iodo-NeuAc, Na-pyruvate (internal standard). Internal standards were added to each sample.
To confirm that synthetic sialic acid analogues supplementing the medium were taken up and metabolically incorporated as analogues into surface sialoglyco-conjugates the membrane-associated sialic acid fraction was analyzed by High Performance Liquid Chromatography (HPLC). […]
To confirm that the modifications are still present after incorporation into glycoconjugates sialic acids were cleaved off cell surfaces and analyzed by HPLC. […] Sialic acids derivation was performed according to a method as given below and samples were analyzed on a reversed-phase C18 column as described (Keppler, O. T., Stehling, P., Herrmann, M., Kayser, H., Grunow, D., Reutter, W., and Pawlita, M. (1995) J Biol Chem 270(3), 1308-14).

For `CC(=S)N[C@H]1[C@H]([C@H](O)[C@H](O)CO)OC(O)(C(=O)O)C[C@@H]1O` (stereo partly shown) [analogue n, 5-N-thioacetyl-neuraminic acid], in assay [1], the “effect on TLM binding” value is reported as “increased binding” and the “effect on VVA binding” value is recorded as “significantly decreased VVA-binding”.

For the molecule `COC(=O)C1(OC(C)=O)C[C@H](OC(C)=O)[C@@H](NC(C)=O)[C@H]([C@H](OC(C)=O)[C@@H](COC(C)=O)OC(C)=O)O1` (stereo partly shown) [NeuAcperOAc-Me-ester], the “reduction in concentration relative to NeuAc” value in assay [2] (0.3 mM vs 5 mM NeuAc) is “more than 16 fold”. Moreover, in assay [2] (HL60-I cells, 72 h), the “effect on cell surface sialylation (VVA and TML binding)” value was “strongly increased cell surface sialylation”; the “medium concentration showing similar effects as 5 mM NeuAc” value was 0.3 mM.

Take `CC(=O)N[C@H]1[C@H]([C@H](O)[C@H](O)CNC(=O)CCC(=O)O)OC(O)(C(=O)O)C[C@@H]1O` (stereo partly shown) [analogue e, 5-N-acetyl-9-deoxy-9-succinylamido-neuraminic acid]: the “effect on VVA binding” value in assay [1] is “weak or no effect on VVA binding”.

`CCOC(=O)C1(O)C[C@H](O)[C@@H](NC(C)=O)[C@H]([C@H](O)[C@H](O)CO)O1` (stereo partly shown) [analogue p, ethyl N-acetyl neuraminate]: in assay [1], the “effect on LFA binding” value was “increased binding of LFA”, the “effect on TLM binding” value is reported as “increased binding” and the “effect on VVA binding” value was “significantly decreased VVA-binding”. In addition, in assay [1] (listed as NeuAc-Et-Ester), the “effect on LFA binding” value was “very similar to those of NeuAc” and the “effect on TLM binding” value is recorded as “very similar to those of NeuAc”.

Take `CSC[C@@H](O)[C@@H](O)[C@@H]1OC(O)(C(=O)O)C[C@H](O)[C@H]1NC(C)=O` (stereo partly shown) [analogue h, 5-N-acetyl-9-deoxy-9-methylthio-neuraminic acid]: in assay [1], the “effect on LFA binding” value is reported as “increased binding of LFA”, the “effect on TLM binding” value is “increased binding” and the “effect on VVA binding” value is on record as “significantly decreased VVA-binding”.

As for `CC(=O)N[C@H]1[C@H]([C@H](O)[C@H](O)CN)OC(O)(C(=O)O)C[C@@H]1O` (stereo partly shown) [analogue b, 5-N-acetyl-9-amino-9-deoxy-neuraminic acid], the “changes in cell surface sialylation (lectin binding overall)” value in assay [1] is reported as “failed to induce changes in cell surface sialylation”.

`O=C(O)CCC(=O)N[C@H]1[C@H]([C@H](O)[C@H](O)CO)OC(O)(C(=O)O)C[C@@H]1O` (stereo partly shown) [analogue m, 5-N-succinyl-neuraminic acid]: the “effect on VVA binding” value in assay [1] is given as “weak or no effect on VVA binding”.

With `NCC(=O)N[C@H]1[C@H]([C@H](O)[C@H](O)CO)OC(O)(C(=O)O)C[C@@H]1O` (stereo partly shown) [analogue l, 5-N-aminoacetyl-neuraminic acid], in assay [1], the “effect on VVA binding” value is “weak or no effect on VVA binding”.

With `O=C(N[C@H]1[C@H]([C@H](O)[C@H](O)CO)OC(O)(C(=O)O)C[C@@H]1O)C(F)(F)F` (stereo partly shown) [analogue k, 5-N-trifluoroacetyl-neuraminic acid], the “effect on VVA binding” value in assay [1] was “significantly decreased VVA-binding”.

For `O=C(CF)N[C@H]1[C@H]([C@H](O)[C@H](O)CO)OC(O)(C(=O)O)C[C@@H]1O` (stereo partly shown) [analogue j, 5-N-fluoroacetyl-neuraminic acid], in assay [3], the “share of membrane-associated sialic acids consisting of the analogue” value is 90.5%. Moreover, in assay [1], the “effect on LFA binding” value was “increased binding of LFA”, the “effect on TLM binding” value is given as “increased binding” and the “effect on VVA binding” value is “significantly decreased VVA-binding”.

Consider `CC(=O)NC[C@@H](O)[C@@H](O)[C@@H]1OC(O)(C(=O)O)C[C@H](O)[C@H]1NC(C)=O` (stereo partly shown) [analogue c, 5-N-acetyl-9-acetamido-9-deoxy-neuraminic acid], for which the “changes in cell surface sialylation (lectin binding overall)” value in assay [1] was “failed to induce changes in cell surface sialylation”.

Turning to `CC(=O)N[C@H]1[C@H]([C@H](O)[C@H](O)CS)OC(O)(C(=O)O)C[C@@H]1O` (stereo partly shown) [analogue g, 5-N-acetyl-9-deoxy-9-thio-neuraminic acid], in assay [1], the “effect on LFA binding” value is “increased binding of LFA”, the “effect on TLM binding” value was “increased binding” and the “effect on VVA binding” value is recorded as “significantly decreased VVA-binding”.

Take `CC(=O)NC1C(OC(C)=O)CC(OC(C)=O)(C(=O)O)OC1C(OC(C)=O)C(COC(C)=O)OC(C)=O` (stereo not shown) [NeuAcperOAc]: the “effect on cell surface sialylation (VVA and TML binding)” value in assay [2] (HL60-I cells, 72 h) was “no effect on cell surface sialylation”.

For the molecule `CC(=O)N[C@H]1[C@H]([C@H](O)[C@H](O)CS(C)(=O)=O)OC(O)(C(=O)O)C[C@@H]1O` (stereo partly shown) [analogue i, 5-N-acetyl-9-deoxy-9-methylsulfonyl-neuraminic acid], in assay [1], the “effect on LFA binding” value was “increased binding of LFA”, the “effect on TLM binding” value is on record as “increased binding” and the “effect on VVA binding” value was “significantly decreased VVA-binding”.

As for `CC(=O)N[C@H]1[C@H]([C@H](O)[C@H](O)CNC(=O)CN)OC(O)(C(=O)O)C[C@@H]1O` (stereo partly shown) [analogue d, 9-N-aminoacetamido-9-deoxy-neuraminic acid], the “effect on VVA binding” value in assay [1] is given as “weak or no effect on VVA binding”.
